ChEMBL document CHEMBL4368941, “Discovery of 3,6-diaryl-1H-pyrazolo[3,4-b]pyridines as potent anaplastic lymphoma kinase (ALK) inhibitors” (Bioorg Med Chem Lett, 2019)

Experiments:
[1] = biological target: ALK tyrosine kinase receptor (Homo sapiens, UniProt Q9UM73)
Description: Inhibition of recombinant ALK (unknown origin) using peptide substrate measured after 1 hr by LanthaScreen assay

KARPAS-299 = assay: cells; conditions: Homo sapiens, KARPAS-299, 72 h
Description: Antiproliferative activity against human KARPAS299 cells after 3 days by MTT assay

Sequence of ALK tyrosine kinase receptor (Q9UM73 whole entry): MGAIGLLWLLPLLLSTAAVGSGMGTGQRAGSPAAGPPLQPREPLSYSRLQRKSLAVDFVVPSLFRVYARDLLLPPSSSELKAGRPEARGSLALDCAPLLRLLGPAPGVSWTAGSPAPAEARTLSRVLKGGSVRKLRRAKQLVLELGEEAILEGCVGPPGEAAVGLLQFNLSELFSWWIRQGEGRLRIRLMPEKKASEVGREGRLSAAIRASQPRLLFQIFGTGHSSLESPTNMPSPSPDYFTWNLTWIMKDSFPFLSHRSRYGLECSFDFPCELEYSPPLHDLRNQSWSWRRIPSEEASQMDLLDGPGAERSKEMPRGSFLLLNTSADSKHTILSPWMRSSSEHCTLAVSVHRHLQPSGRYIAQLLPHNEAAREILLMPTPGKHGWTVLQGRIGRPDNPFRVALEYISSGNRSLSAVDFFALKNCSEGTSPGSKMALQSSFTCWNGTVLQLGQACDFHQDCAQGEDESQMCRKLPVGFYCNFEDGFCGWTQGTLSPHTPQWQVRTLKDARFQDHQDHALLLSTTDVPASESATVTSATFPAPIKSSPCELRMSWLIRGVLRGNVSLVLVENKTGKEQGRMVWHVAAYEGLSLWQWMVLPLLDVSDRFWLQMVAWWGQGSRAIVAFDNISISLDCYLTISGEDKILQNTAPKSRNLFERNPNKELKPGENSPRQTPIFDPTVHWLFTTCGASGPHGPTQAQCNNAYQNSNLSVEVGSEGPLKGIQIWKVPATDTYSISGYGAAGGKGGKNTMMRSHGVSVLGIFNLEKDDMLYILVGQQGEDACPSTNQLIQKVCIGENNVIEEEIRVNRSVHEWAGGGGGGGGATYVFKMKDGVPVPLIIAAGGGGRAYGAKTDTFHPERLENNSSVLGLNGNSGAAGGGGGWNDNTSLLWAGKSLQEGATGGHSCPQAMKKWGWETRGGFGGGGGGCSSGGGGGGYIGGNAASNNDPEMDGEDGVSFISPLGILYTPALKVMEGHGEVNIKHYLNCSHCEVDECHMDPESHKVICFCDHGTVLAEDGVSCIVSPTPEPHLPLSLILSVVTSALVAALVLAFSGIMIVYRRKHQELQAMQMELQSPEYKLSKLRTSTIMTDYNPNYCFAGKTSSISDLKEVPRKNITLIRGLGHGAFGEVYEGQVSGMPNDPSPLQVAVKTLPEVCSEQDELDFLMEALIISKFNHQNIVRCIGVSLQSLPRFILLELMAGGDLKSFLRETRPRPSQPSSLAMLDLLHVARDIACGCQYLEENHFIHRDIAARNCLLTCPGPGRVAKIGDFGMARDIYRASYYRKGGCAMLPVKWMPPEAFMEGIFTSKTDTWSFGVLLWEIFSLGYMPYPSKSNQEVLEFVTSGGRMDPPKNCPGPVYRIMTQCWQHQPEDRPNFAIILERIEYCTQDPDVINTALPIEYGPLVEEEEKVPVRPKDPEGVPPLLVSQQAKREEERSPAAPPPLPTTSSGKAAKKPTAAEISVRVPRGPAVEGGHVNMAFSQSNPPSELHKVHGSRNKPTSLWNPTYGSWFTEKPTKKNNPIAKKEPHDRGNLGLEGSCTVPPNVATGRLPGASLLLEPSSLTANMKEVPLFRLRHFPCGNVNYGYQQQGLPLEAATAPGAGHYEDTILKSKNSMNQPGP

OCC1CCCCN1Cc1ccc(-c2n[nH]c3nc(-c4ccc(O)cc4)ccc23)o1 (stereo not drawn)
IC50 [1]: 568 nM

CC(C)N1CCN(c2ccc(-c3n[nH]c4nc(-c5ccc(N)cc5)ccc34)cc2)CC1
IC50 (KARPAS-299): > 10000 nM
IC50 [1]: 218 nM

Oc1ccc(-c2ccc3c(-c4ccc(N5CCCCC5)cc4)n[nH]c3n2)cc1
IC50 [1]: 339 nM

COc1ccc(-c2n[nH]c3nc(-c4ccc(O)cc4)ccc23)cc1
IC50 [1]: 239 nM

CC(C)N1CCN(c2ccc(-c3n[nH]c4nc(-c5ccc(O)c(F)c5)ccc34)cc2)CC1
IC50 (KARPAS-299): > 2000 nM
IC50 [1]: 1.58 nM

Oc1ccc(-c2ccc3c(-c4ccccc4)n[nH]c3n2)cc1
IC50 (KARPAS-299): 24.2 nM
IC50 [1]: 251 nM

CN1CCN(Cc2ccc(-c3n[nH]c4nc(-c5ccc(O)cc5)ccc34)o2)CC1
IC50 [1]: 194 nM

Oc1ccc(-c2ccc3c(-c4ccc(CN5CCCCC5)o4)n[nH]c3n2)cc1
IC50 [1]: 394 nM

CC(C)N1CCN(c2ccc(-c3n[nH]c4nc(-c5ccc(C(C)(C)O)cc5)ccc34)cc2)CC1
IC50 (KARPAS-299): 105000 nM
IC50 [1]: > 2000 nM

COc1cc(N2CCN(C(C)C)CC2)ccc1-c1n[nH]c2nc(-c3ccc(O)cc3)ccc12
IC50 (KARPAS-299): 2850 nM
IC50 [1]: 27 nM

Oc1ccc(-c2ccc3c(-c4ccc(CN5CCCC5)o4)n[nH]c3n2)cc1
IC50 [1]: 253 nM

Oc1ccc(-c2ccc3c(-c4ccc(N5CCOCC5)cc4)n[nH]c3n2)cc1
IC50 [1]: 425 nM

Oc1ccc(-c2ccc3c(-c4cnn(C5CCNCC5)c4)n[nH]c3n2)cc1
IC50 (KARPAS-299): 340 nM
IC50 [1]: 13.8 nM

CC(C)N1CCN(c2ccc(-c3n[nH]c4nc(-c5ccc(Cl)cc5)ccc34)cc2)CC1
IC50 (KARPAS-299): > 10000 nM
IC50 [1]: > 2000 nM

Oc1ccc(-c2ccc3c(-c4ccc(CN5CCOCC5)o4)n[nH]c3n2)cc1
IC50 [1]: 94.1 nM

Oc1ccc(-c2ccc3c(-c4ccc(F)cc4)n[nH]c3n2)cc1
IC50 [1]: 336 nM

Oc1ccc(-c2ccc3c(-c4cnn(C5CCNCC5)c4)n[nH]c3n2)cc1F
IC50 (KARPAS-299): 2100 nM
IC50 [1]: 39.6 nM

CC(C)N1CCN(c2ccc(-c3n[nH]c4nc(-c5cc(F)c(O)c(F)c5)ccc34)cc2)CC1
IC50 (KARPAS-299): 149 nM
IC50 [1]: 649 nM

Oc1ccc(-c2ccc3c(-c4ccc(Cl)cc4)n[nH]c3n2)cc1
IC50 [1]: > 2000 nM

CN(CCO)Cc1ccc(-c2n[nH]c3nc(-c4ccc(O)cc4)ccc23)o1
IC50 [1]: 83.2 nM

Oc1ccc(-c2ccc3c(-c4ccc(O)cc4)n[nH]c3n2)cc1
IC50 [1]: 130 nM

CC(C)N1CCN(Cc2ccc(-c3n[nH]c4nc(-c5ccc(O)cc5)ccc34)o2)CC1
IC50 [1]: 103 nM

CC(C)N1CCN(c2ccc(-c3n[nH]c4nc(-c5ccc(O)cc5)ccc34)cc2)CC1
IC50 [1]: 47.4 nM

COc1cc(N2CCN(C(C)C)CC2)ccc1-c1n[nH]c2nc(-c3ccc(O)c(F)c3)ccc12
IC50 (KARPAS-299): 263 nM
IC50 [1]: 53.1 nM

Cc1ccc(-c2n[nH]c3nc(-c4ccc(O)cc4)ccc23)o1
IC50 [1]: 53.9 nM

CC(C)N1CCN(c2ccc(-c3n[nH]c4nc(-c5ccc(C#N)cc5)ccc34)cc2)CC1
IC50 (KARPAS-299): > 2000 nM
IC50 [1]: > 2000 nM

CC(C)N1CCN(c2ccc(-c3n[nH]c4nc(-c5ccc(F)cc5)ccc34)cc2)CC1
IC50 [1]: > 2000 nM
